Test results reported in the NIST ThermoML archive (doi:10.1016/j.fluid.2016.08.002).

Assay: xn = mol fraction of the nth substance listed
Conditions: Gas, Vibrating tube method

S [hydrogen sulfide] + C
Conditions	mass density [kg/m3]
273.16 K, 19608 kPa, x2 = 0.714	336.94
273.16 K, 22152 kPa, x2 = 0.714	354.18
273.16 K, 22483 kPa, x2 = 0.714	356.27
273.17 K, 12519 kPa, x2 = 0.8197	177.81
273.18 K, 22828 kPa, x2 = 0.714	358.14
273.19 K, 21199 kPa, x2 = 0.714	347.78
273.19 K, 24981 kPa, x2 = 0.714	368.95
273.2 K, 20623 kPa, x2 = 0.714	344.02
273.2 K, 23590 kPa, x2 = 0.714	362.19
273.21 K, 209 kPa, x2 = 0.8685	1.7
273.21 K, 648 kPa, x2 = 0.8685	5.39
273.21 K, 21506 kPa, x2 = 0.714	349.84
273.22 K, 26410 kPa, x2 = 0.714	375.25
273.23 K, 20100 kPa, x2 = 0.714	340.42
273.23 K, 25533 kPa, x2 = 0.714	371.48
273.24 K, 1167 kPa, x2 = 0.8685	10
273.24 K, 1761 kPa, x2 = 0.8685	15.44
273.24 K, 27020 kPa, x2 = 0.714	377.85
273.25 K, 2240 kPa, x2 = 0.8685	19.97
273.25 K, 3776 kPa, x2 = 0.8685	35.41
273.25 K, 11361 kPa, x2 = 0.8685	140.37
273.25 K, 24591 kPa, x2 = 0.714	367.01
273.25 K, 26031 kPa, x2 = 0.714	373.67
273.25 K, 30481 kPa, x2 = 0.8685	300.13
273.26 K, 2770 kPa, x2 = 0.8685	25.12
273.26 K, 4666 kPa, x2 = 0.8685	45.13
273.26 K, 5086 kPa, x2 = 0.8685	49.93
273.26 K, 11062 kPa, x2 = 0.8685	135.65
273.26 K, 11726 kPa, x2 = 0.8685	146.08
273.26 K, 12002 kPa, x2 = 0.8685	150.33
273.26 K, 12322 kPa, x2 = 0.8685	155.19
273.26 K, 12637 kPa, x2 = 0.8685	159.86
273.26 K, 13040 kPa, x2 = 0.8685	165.72
273.26 K, 27255 kPa, x2 = 0.8685	285.03
273.26 K, 28276 kPa, x2 = 0.8685	290.05
273.26 K, 29372 kPa, x2 = 0.8685	295.19
273.27 K, 3280 kPa, x2 = 0.8685	30.25
273.27 K, 4207 kPa, x2 = 0.8685	40.03
273.27 K, 4225 kPa, x2 = 0.8685	40.23
273.27 K, 9149 kPa, x2 = 0.8685	105.29
273.27 K, 9851 kPa, x2 = 0.8685	116.33
273.27 K, 13466 kPa, x2 = 0.8685	171.7
273.27 K, 13771 kPa, x2 = 0.8685	175.85
273.27 K, 24569 kPa, x2 = 0.8685	270.52
273.27 K, 25361 kPa, x2 = 0.8685	275.02
273.27 K, 26319 kPa, x2 = 0.8685	280.21
273.28 K, 5512 kPa, x2 = 0.8685	54.98
273.28 K, 5933 kPa, x2 = 0.8685	60.12
273.28 K, 8496 kPa, x2 = 0.8685	95.31
273.28 K, 9596 kPa, x2 = 0.8685	112.28
273.28 K, 10137 kPa, x2 = 0.8685	120.88
273.29 K, 8136 kPa, x2 = 0.8685	89.96
273.29 K, 8809 kPa, x2 = 0.8685	100.05
273.29 K, 10446 kPa, x2 = 0.8685	125.82
273.29 K, 10749 kPa, x2 = 0.8685	130.66
273.29 K, 23690 kPa, x2 = 0.8685	265.29
273.3 K, 6333 kPa, x2 = 0.8685	65.17
273.3 K, 14847 kPa, x2 = 0.8685	189.62
273.31 K, 6712 kPa, x2 = 0.8685	70.1
273.31 K, 7200 kPa, x2 = 0.8685	76.68
273.31 K, 7483 kPa, x2 = 0.8685	80.6
273.31 K, 7817 kPa, x2 = 0.8685	85.33
273.31 K, 15329 kPa, x2 = 0.8685	195.37
273.31 K, 22905 kPa, x2 = 0.8685	260.37
273.32 K, 15811 kPa, x2 = 0.8685	200.85
273.32 K, 16120 kPa, x2 = 0.8685	204.24
273.32 K, 16817 kPa, x2 = 0.8685	211.55
273.33 K, 17352 kPa, x2 = 0.8685	216.85
273.33 K, 21405 kPa, x2 = 0.8685	250.29
273.34 K, 17978 kPa, x2 = 0.8685	222.75
273.34 K, 18233 kPa, x2 = 0.8685	225.06
273.35 K, 18773 kPa, x2 = 0.8685	229.81
273.35 K, 19531 kPa, x2 = 0.8685	236.12
273.36 K, 20692 kPa, x2 = 0.8685	245.12
273.37 K, 20048 kPa, x2 = 0.8685	240.23
273.37 K, 24085 kPa, x2 = 0.714	364.7
293.18 K, 239 kPa, x2 = 0.8685	1.86
293.18 K, 469 kPa, x2 = 0.8685	3.71
293.18 K, 2890 kPa, x2 = 0.8685	25.81
293.18 K, 8263 kPa, x2 = 0.8685	79.99
293.18 K, 8722 kPa, x2 = 0.8685	85.68
293.18 K, 9972 kPa, x2 = 0.8685	100.39
293.18 K, 12003 kPa, x2 = 0.8685	124.94
293.18 K, 12415 kPa, x2 = 0.8685	130.08
293.18 K, 12830 kPa, x2 = 0.8685	135.13
293.18 K, 13726 kPa, x2 = 0.8685	145.96
293.19 K, 792 kPa, x2 = 0.8685	6.46
293.19 K, 1341 kPa, x2 = 0.8685	11.22
293.19 K, 2300 kPa, x2 = 0.8685	20.14
293.19 K, 3396 kPa, x2 = 0.8685	30.35
293.19 K, 3988 kPa, x2 = 0.8685	35.82
293.19 K, 4428 kPa, x2 = 0.8685	40.25
293.19 K, 6909 kPa, x2 = 0.8685	65.4
293.19 K, 7335 kPa, x2 = 0.8685	70.05
293.19 K, 7786 kPa, x2 = 0.8685	74.96
293.19 K, 9097 kPa, x2 = 0.8685	90.09
293.19 K, 9534 kPa, x2 = 0.8685	95.16
293.19 K, 10368 kPa, x2 = 0.8685	105.2
293.19 K, 10794 kPa, x2 = 0.8685	110.28
293.19 K, 11183 kPa, x2 = 0.8685	115.06
293.19 K, 11608 kPa, x2 = 0.8685	120.16
293.19 K, 13230 kPa, x2 = 0.8685	140.02
293.19 K, 16228 kPa, x2 = 0.8685	174.96
293.19 K, 16699 kPa, x2 = 0.8685	180.07
293.19 K, 17682 kPa, x2 = 0.8685	190.29
293.2 K, 1820 kPa, x2 = 0.8685	15.41
293.2 K, 4887 kPa, x2 = 0.8685	44.78
293.2 K, 5494 kPa, x2 = 0.8685	50.99
293.2 K, 5964 kPa, x2 = 0.8685	55.59
293.2 K, 6411 kPa, x2 = 0.8685	60.21
293.2 K, 14242 kPa, x2 = 0.8685	152.42
293.2 K, 14579 kPa, x2 = 0.8685	156.48
293.2 K, 14924 kPa, x2 = 0.8685	160.62
293.2 K, 15365 kPa, x2 = 0.8685	165.51
293.2 K, 15806 kPa, x2 = 0.8685	170.31
293.2 K, 17183 kPa, x2 = 0.8685	185.14
293.2 K, 18163 kPa, x2 = 0.8685	195.16
293.2 K, 20932 kPa, x2 = 0.8685	220.42
293.2 K, 21495 kPa, x2 = 0.8685	224.99
293.2 K, 27629 kPa, x2 = 0.8685	265.96
293.2 K, 28496 kPa, x2 = 0.8685	270.59
293.21 K, 1117 kPa, x2 = 0.8685	9.2
293.21 K, 23505 kPa, x2 = 0.8685	240.2
293.21 K, 25865 kPa, x2 = 0.8685	255.77
293.21 K, 26669 kPa, x2 = 0.8685	260.49
293.21 K, 29415 kPa, x2 = 0.8685	275.27
293.21 K, 29995 kPa, x2 = 0.8685	278.16
293.21 K, 30419 kPa, x2 = 0.8685	280.17
293.22 K, 20355 kPa, x2 = 0.8685	215.54
293.22 K, 24254 kPa, x2 = 0.8685	245.19
293.22 K, 25052 kPa, x2 = 0.8685	250.52
